Read-outs that look alike come from different tables or passages of the source.
Columns and labels:
[1] = Cytotoxicity MTT assay on PMA-differentiated THP-1 macrophages; type: cell-based; conditions: human; PMA-differentiated THP-1 macrophages, 72 h, MTT; 100 to 12.5 µM tested; read-out: Cytotoxicity CC50 (µM) 95% CI, THP-1
Protocol: A human leukemia cell line, THP-1 (ATCC® TIB-202™), was cultured in RPMI-1640 medium supplemented with 10% heat-inactivated fetal bovine serum (FBS), 2 mM L-glutamine, 100 IU/mL penicillin/streptomycin, and 20 mM HEPES. The cell line was maintained in a humidified incubator at 37 °C and 5% CO2 by subculture every 3 days in 20 mL of media at a concentration of 2 × 10^5/mL in a T75 flask. All cell culture reagents were purchased from Lonza-Bioscience (Morrisville, NC, USA).
The cytotoxicity effect of compounds on THP-1-derived macrophages was assessed by colorimetric MTT assay (3-(4,5-dimethylthiazol-2-yl)-2,5-diphenyl tetrazolium bromide). Briefly, THP-1 cells were suspended in RPMI complete medium at a density of 1 × 10^6 cells/mL and 100 μL/well and were seeded in a 96-well plate and differentiated into macrophages by addition of 40 ng/mL of phorbol-myristate 13-acetate (PMA, Sigma, Saint Louis, MI, USA) for 24 h, followed by replacement with fresh medium for 24 more h. Subsequently, the cells were incubated with 100 μL of compounds ranging from 100 to 12.5 μM after dilution in the RPMI complete medium. Each condition was carried out in quadruplicate. After 72 h of incubation at 37 °C and 5% CO2, the medium was removed, and 200 μL of 0.5 mg/mL MTT solution diluted in RPMI was added. The plates were incubated for an additional 4 h. Then, 160 μL of media was removed, and the same volume of 2-propanol was added. Absorbance was read at 570 nm using a Synergy 2 Multi-Mode Reader (Biotek, Winooski, VT, USA). Cytotoxicity was evaluated by the determination of the CC50 value (drug concentration that reduced the percentage of viable cells by 50%) and calculated by non-linear regression analysis using GraphPad Prism software, version 8.1.1 for Windows (GraphPad Software, San Diego, CA, USA). The results represent the average of at least three independent experiments. For each compound, the selectivity index (SI) was calculated as the ratio between cytotoxicity in THP-1 (CC50, 72 h) and activity against parasites (IC50, 72 h).

[2] = system: T. brucei Lister 427 bloodstream forms; test: Anti-T. brucei activity, resazurin-based assay on bloodstream forms; type: cell-based, Trypanosoma brucei; conditions: for IC50: Trypanosoma brucei, read-out: Anti-Parasitic Activity IC50 (µM) 95% CI, T. brucei
Protocol: T. brucei Lister 427 bloodstream forms were grown in a humidified incubator at 37 °C and 5% CO2 in complete HMI-9 medium supplemented with 10% heat-inactivated fetal bovine serum (FBS) and 100 UI/mL penicillin/streptomycin. Parasite maintenance was performed in T25 ventilated flasks by subpassage at a concentration of 1 × 10^4/mL every 2 days in T25 ventilated flasks. Luciferase-expressing L. infantum (MHOM/MA/67/ITMAP-263) axenic amastigotes expressing episomal luciferase were maintained in MAA20 [31] at 37 °C in a 5% CO2 environment with subculture every 7 days at 1 × 10^6/mL in 5-mL T25 ventilated flasks.
The compounds’ efficacy against bloodstream-stage trypomastigotes was evaluated using a resazurin-based assay. Parasites were added to 100 µL of serial dilutions of compounds in supplemented complete medium at a cell density of 5 × 10^3/mL. As a quality control, a dose–response curve for the antitrypanosomal pentamidine was included in all the assays. The final volume of the assay was 200 µL/well. Each condition was carried out in duplicate. Following 72 h of incubation at the specific conditions for parasites, 20 […] of a 0.5 mM resazurin solution was added, and the plates were incubated for a further 4 h under the same conditions. Fluorescence was measured at 544 nm and 590 nm excitation and emission wavelength, respectively, using a Synergy 2 Multi-Mode Reader (Biotek, Winooski, VT, USA). The results are shown as % of parasite growth inhibition compared to control (untreated parasites) and represent the average of at least three independent experiments. The effect was evaluated by the determination of the IC50 value (concentration required to inhibit growth in 50%) and calculated by non-linear regression curves using GraphPad Prism software, version 8.1.1 for Windows (GraphPad Software, San Diego, CA, USA).

[3] = bloodstream forms, 72 h incubation, resazurin

| Structure (SMILES) | IC50 [2, 3] [µM] | Anti-Parasitic Activity IC50 (µM) 95% CI, T. brucei [2, 3] | CC50 at 72 h [1] [µM] | IC50 ([2]; 72 h) [µM] |
| --- | --- | --- | --- | --- |
| C=CCc1ccc(O)c(OC)c1 [Eugenol, eugenol, reference compound] |  |  | > 100 | > 40 |
| C=CCc1ccc(OCc2cn(CC(=O)Nc3ccccc3C(=O)O)nn2)c(OC)c1 [compound 13, 2-(2-(4-((4-allyl-2-methoxyphenoxy)methyl)-1H-1,2,3-triazol-1-yl)acetamido) benzoic acid] | > 40 |  | > 100 |  |
| C=CCc1cc(Cn2cc(-c3nc4ccccc4c(=O)o3)nn2)c(O)c(OC)c1 [compound 14, 2-(1-(5-allyl-2-hydroxy-3-methoxybenzyl)-1H-1,2,3-triazol-4-yl)-4H-benzo[d][1,3]oxazin-4-one] | 31.7 |  | > 100 |  |

More lines, main results first:

| IC50 [2, 3] [µM] | Anti-Parasitic Activity IC50 (µM) 95% CI, T. brucei [2, 3] | Structure (SMILES) | CC50 at 72 h [1] [µM] | IC50 ([2]; 72 h) [µM] |
| --- | --- | --- | --- | --- |
| > 40 | did not show detectable values of IC50 | C=CCc1cc(Cn2cc(C(=O)Nc3ccccc3C(N)=O)nn2)c(O)c(OC)c1 [9a, 1-(5-allyl-2-hydroxy-3-methoxybenzyl)-N-(2-carbamoylphenyl)-1H-1,2,3-triazole-4-carboxamide] | > 100 |  |
| 16.4 |  | C=CCc1cc(Cn2cc(C(=O)Nc3ccc(OC)cc3C(N)=O)nn2)c(O)c(OC)c1 [9b, 1-(5-allyl-2-hydroxy-3-methoxybenzyl)-N-(2-carbamoyl-4-methoxyphenyl)-1H-1,2,3-triazole-4-carboxamide] | > 100 |  |
| 21 |  | C=CCc1cc(Cn2cc(C(=O)Nc3ccc(F)cc3C(N)=O)nn2)c(O)c(OC)c1 [9c, 1-(5-allyl-2-hydroxy-3-methoxybenzyl)-N-(2-carbamoyl-4-fluorophenyl)-1H-1,2,3-triazole-4-carboxamide] | 45.8 |  |
| 15.9 |  | C=CCc1cc(Cn2cc(C(=O)Nc3ccc(Cl)cc3C(N)=O)nn2)c(O)c(OC)c1 [9d, 1-(5-allyl-2-hydroxy-3-methoxybenzyl)-N-(2-carbamoyl-4-chlorophenyl)-1H-1,2,3-triazole-4-carboxamide] | > 100 |  |
| > 40 | did not show detectable values of IC50 | C=CCc1cc(Cn2cc(-c3nc4ccccc4c(=O)[nH]3)nn2)c(O)c(OC)c1 [10a, 2-(1-(5-allyl-2-hydroxy-3-methoxybenzyl)-1H-1,2,3-triazol-4-yl)quinazolin-4(3H)-one] | > 100 |  |
| 19.9 |  | C=CCc1cc(Cn2cc(-c3nc4ccc(OC)cc4c(=O)[nH]3)nn2)c(O)c(OC)c1 [10b, 2-(1-(5-allyl-2-hydroxy-3-methoxybenzyl)-1H-1,2,3-triazol-4-yl)-6-methoxyquinazolin-4(3H)-one] | > 100 |  |
| 11.2 |  | C=CCc1cc(Cn2cc(-c3nc4ccc(F)cc4c(=O)[nH]3)nn2)c(O)c(OC)c1 [10c, 2-(1-(5-allyl-2-hydroxy-3-methoxybenzyl)-1H-1,2,3-triazol-4-yl)-6-fluoroquinazolin-4(3H)-one] | > 100 |  |

Reference: PMC10671849, “Synthesis and Evaluation of Marine-Inspired Compounds Result in Hybrids with Antitrypanosomal and Antileishmanial Activities” (Marine Drugs, 2023)
